Test results taken from paper PMC9856672, “SGC-CAMKK2-1: A Chemical Probe for CAMKK2” (Cells, 2023).

Columns and labels:
[1] = target: T1, DRAK2 (Homo sapiens, UniProt O94768); test: KINOMEscan at 1 μM, DRAK2; type: binding; details: 1000 nM, read-out: Percent Control
T1 construct: purchased Eurofins DiscoverX KINOMEscan
From the text: (§1) Supplement cells-12-00287-s001.zip/File S2. KinomeScan data for the CAMKK2 probe and negative control.xlsx, sheet "SGC-CAMKK2-1N" | column: Percent Control

[2] = target: T2, PKN1 (Homo sapiens, UniProt Q16512); test: KINOMEscan binding assay at 1 μM, PKN1; details: Compound Concentration 1000 nM; read-out: Percent Control
T2 construct: purchased Eurofins DiscoverX KINOMEscan
From the text: as §1

[3] = target: T3, INSR (Homo sapiens, UniProt P06213); test: KINOMEscan at 1 μM, INSR; type: binding; details: 1000 nM, read-out: Percent Control
T3 construct: purchased Eurofins DiscoverX KINOMEscan
From the text: as §1

[4] = target: T4, TGFBR2 (Homo sapiens, UniProt P37173); test: KINOMEscan binding assay at 1 μM, TGFBR2; details: Compound Concentration 1000 nM; read-out: Percent Control
T4 construct: purchased Eurofins DiscoverX KINOMEscan
From the text: as §1

[5] = target: T5, LTK (Homo sapiens, UniProt P29376); test: KINOMEscan binding assay at 1 μM, LTK; details: Compound Concentration 1000 nM; read-out: Percent Control
T5 construct: purchased Eurofins DiscoverX KINOMEscan
From the text: as §1

[6] = target: T6, TBK1 (Homo sapiens, UniProt Q9UHD2); test: KINOMEscan at 1 μM, TBK1; type: binding; details: 1000 nM, read-out: Percent Control
T6 construct: purchased Eurofins DiscoverX KINOMEscan
From the text: as §1

[7] = target: T7, LYN (Homo sapiens, UniProt P07948); test: KINOMEscan binding assay at 1 μM, LYN; details: Compound Concentration 1000 nM; read-out: Percent Control
T7 construct: purchased Eurofins DiscoverX KINOMEscan
From the text: as §1

[8] = target: T8, MST1R (Homo sapiens, UniProt Q04912); test: KINOMEscan at 1 μM, MST1R; type: binding; details: 1000 nM, read-out: Percent Control
T8 construct: purchased Eurofins DiscoverX KINOMEscan
From the text: as §1

[9] = target: T9, ASK1 (Homo sapiens, UniProt Q99683); test: KINOMEscan at 1 μM, ASK1; type: binding; details: 1000 nM, read-out: Percent Control
T9 construct: purchased Eurofins DiscoverX KINOMEscan
From the text: as §1

[10] = target: T10, PIK3CA(E545K) (Homo sapiens, UniProt P42336, E545K); test: KINOMEscan at 1 μM, PIK3CA(E545K); type: binding; details: 1000 nM, read-out: Percent Control
T10 construct: purchased Eurofins DiscoverX KINOMEscan
From the text: as §1

[11] = target: T11, YANK1 (Homo sapiens, UniProt Q8WU08); test: KINOMEscan at 1 μM, YANK1; type: binding; details: 1000 nM, read-out: Percent Control
T11 construct: purchased Eurofins DiscoverX KINOMEscan
From the text: as §1

[12] = target: T12, CAMK4 (Homo sapiens, UniProt Q16566); test: KINOMEscan at 1 μM, CAMK4; type: binding; details: 1000 nM, read-out: Percent Control
T12 construct: purchased Eurofins DiscoverX KINOMEscan
From the text: as §1

[13] = target: T13, MERTK (Homo sapiens, UniProt Q12866); test: KINOMEscan at 1 μM, MERTK; type: binding; details: 1000 nM, read-out: Percent Control
T13 construct: purchased Eurofins DiscoverX KINOMEscan
From the text: as §1

[14] = target: T14, ITK (Homo sapiens, UniProt Q08881); test: KINOMEscan binding assay at 1 μM, ITK; details: Compound Concentration 1000 nM; read-out: Percent Control
T14 construct: purchased Eurofins DiscoverX KINOMEscan
From the text: as §1

[15] = target: T15, MEK3 (Homo sapiens, UniProt P46734); test: KINOMEscan 1 μM, MEK3; type: binding; details: 1000 nM; Entrez MAP2K3; read-out: Percent Control
T15 construct: purchased Eurofins DiscoverX KINOMEscan
From the text: (§2) Supplement cells-12-00287-s001.zip/File S2. KinomeScan data for the CAMKK2 probe and negative control.xlsx, sheet "SGC-CAMKK2-1" | column: Percent Control

[16] = target: T16, DMPK2 (Homo sapiens, UniProt Q6DT37); test: KINOMEscan 1 μM, DMPK2; type: binding; details: 1000 nM; Entrez CDC42BPG; read-out: Percent Control
T16 construct: purchased Eurofins DiscoverX KINOMEscan
From the text: as §2

[17] = target: T17, RSK2(Kin.Dom.2-C-terminal) (Homo sapiens, UniProt P51812); test: DiscoverX KINOMEscan binding assay at 1 μM, RSK2(Kin.Dom.2-C-terminal); details: RSK2(Kin.Dom.2-C-terminal) (RPS6KA3); Compound Concentration 1000 nM; read-out: Percent Control
T17 construct: RSK2(Kin.Dom.2-C-terminal); purchased Eurofins DiscoverX KINOMEscan
From the text: as §2

[18] = target: T18, TAK1 (Homo sapiens, UniProt O43318); test: KINOMEscan 1 μM, TAK1; type: binding; details: 1000 nM; Entrez MAP3K7; read-out: Percent Control
T18 construct: purchased Eurofins DiscoverX KINOMEscan
From the text: as §2

[19] = target: T19, MET(Y1235D) (Homo sapiens, UniProt P08581, Y1235D); test: KINOMEscan 1 μM, MET(Y1235D); type: binding; details: 1000 nM; Entrez MET; read-out: Percent Control
T19 construct: purchased Eurofins DiscoverX KINOMEscan
From the text: as §2

[20] = target: T20, PLK3 (Homo sapiens, UniProt Q9H4B4); test: DiscoverX KINOMEscan binding assay at 1 μM, PLK3; details: Compound Concentration 1000 nM, read-out: Percent Control
T20 construct: purchased Eurofins DiscoverX KINOMEscan
From the text: as §2

[21] = target: T21, PIM3 (Homo sapiens, UniProt Q86V86); test: KINOMEscan 1 μM, PIM3; type: binding; details: 1000 nM; Entrez PIM3; read-out: Percent Control
T21 construct: purchased Eurofins DiscoverX KINOMEscan
From the text: as §2

[22] = target: T22, NIK (Homo sapiens, UniProt Q99558); test: KINOMEscan 1 μM, NIK; type: binding; details: 1000 nM; Entrez MAP3K14; read-out: Percent Control
T22 construct: purchased Eurofins DiscoverX KINOMEscan
From the text: as §2

[23] = target: T23, GRK1 (Homo sapiens, UniProt Q15835); test: KINOMEscan 1 μM, GRK1; type: binding; details: 1000 nM; Entrez GRK1; read-out: Percent Control
T23 construct: purchased Eurofins DiscoverX KINOMEscan
From the text: as §2

[24] = target: T24, EPHB6 (Homo sapiens, UniProt O15197); test: KINOMEscan 1 μM, EPHB6; type: binding; details: 1000 nM; Entrez EPHB6; read-out: Percent Control
T24 construct: purchased Eurofins DiscoverX KINOMEscan
From the text: as §2

[25] = target: T25, VEGFR2 (Homo sapiens, UniProt P35968); test: DiscoverX KINOMEscan binding assay at 1 μM, VEGFR2; details: VEGFR2 (KDR); Compound Concentration 1000 nM; read-out: Percent Control
T25 construct: purchased Eurofins DiscoverX KINOMEscan
From the text: as §2

[26] = target: T26, PAK7 (Homo sapiens, UniProt Q9P286); test: DiscoverX KINOMEscan binding assay at 1 μM, PAK7; details: Compound Concentration 1000 nM, read-out: Percent Control
T26 construct: purchased Eurofins DiscoverX KINOMEscan
From the text: as §2

[27] = target: T27, ABL1(T315I)-nonphosphorylated (Homo sapiens, UniProt P00519, T315I); test: KINOMEscan 1 μM, ABL1(T315I)-nonphosphorylated; type: binding; details: 1000 nM; Entrez ABL1; read-out: Percent Control
T27 construct: purchased Eurofins DiscoverX KINOMEscan
From the text: as §2

[28] = target: T28, MRCKB (Homo sapiens, UniProt Q9Y5S2); test: KINOMEscan 1 μM, MRCKB; type: binding; details: 1000 nM; Entrez CDC42BPB; read-out: Percent Control
T28 construct: purchased Eurofins DiscoverX KINOMEscan
From the text: as §2

[29] = target: T1, DRAK2; test: KINOMEscan 1 μM, DRAK2; type: binding; details: 1000 nM; Entrez STK17B; read-out: Percent Control
From the text: as §2

[30] = target: T29, EPHA6 (Homo sapiens, UniProt Q9UF33); test: KINOMEscan 1 μM, EPHA6; type: binding; details: 1000 nM; Entrez EPHA6; read-out: Percent Control
T29 construct: purchased Eurofins DiscoverX KINOMEscan
From the text: as §2

[31] = target: T30, TYK2(JH1domain-catalytic) (Homo sapiens, UniProt P29597); test: DiscoverX KINOMEscan binding assay at 1 μM, TYK2(JH1domain-catalytic); details: Compound Concentration 1000 nM, read-out: Percent Control
T30 construct: TYK2(JH1domain-catalytic); purchased Eurofins DiscoverX KINOMEscan
From the text: as §2

[32] = target: T31, FES (Homo sapiens, UniProt P07332); test: KINOMEscan 1 μM, FES; type: binding; details: 1000 nM; Entrez FES; read-out: Percent Control
T31 construct: purchased Eurofins DiscoverX KINOMEscan
From the text: as §2

T1 sequence (O94768 whole entry): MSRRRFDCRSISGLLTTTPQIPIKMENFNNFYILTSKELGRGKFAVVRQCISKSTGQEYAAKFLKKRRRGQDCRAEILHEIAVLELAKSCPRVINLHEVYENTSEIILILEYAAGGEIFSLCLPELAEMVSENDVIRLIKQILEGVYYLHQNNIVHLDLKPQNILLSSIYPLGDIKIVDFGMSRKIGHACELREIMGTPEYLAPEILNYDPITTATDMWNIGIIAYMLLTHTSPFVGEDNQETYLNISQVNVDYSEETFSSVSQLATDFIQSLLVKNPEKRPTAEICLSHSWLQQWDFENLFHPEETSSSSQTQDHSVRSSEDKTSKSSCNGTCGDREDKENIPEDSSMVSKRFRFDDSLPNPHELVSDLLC
T24 sequence (O15197 32-1021): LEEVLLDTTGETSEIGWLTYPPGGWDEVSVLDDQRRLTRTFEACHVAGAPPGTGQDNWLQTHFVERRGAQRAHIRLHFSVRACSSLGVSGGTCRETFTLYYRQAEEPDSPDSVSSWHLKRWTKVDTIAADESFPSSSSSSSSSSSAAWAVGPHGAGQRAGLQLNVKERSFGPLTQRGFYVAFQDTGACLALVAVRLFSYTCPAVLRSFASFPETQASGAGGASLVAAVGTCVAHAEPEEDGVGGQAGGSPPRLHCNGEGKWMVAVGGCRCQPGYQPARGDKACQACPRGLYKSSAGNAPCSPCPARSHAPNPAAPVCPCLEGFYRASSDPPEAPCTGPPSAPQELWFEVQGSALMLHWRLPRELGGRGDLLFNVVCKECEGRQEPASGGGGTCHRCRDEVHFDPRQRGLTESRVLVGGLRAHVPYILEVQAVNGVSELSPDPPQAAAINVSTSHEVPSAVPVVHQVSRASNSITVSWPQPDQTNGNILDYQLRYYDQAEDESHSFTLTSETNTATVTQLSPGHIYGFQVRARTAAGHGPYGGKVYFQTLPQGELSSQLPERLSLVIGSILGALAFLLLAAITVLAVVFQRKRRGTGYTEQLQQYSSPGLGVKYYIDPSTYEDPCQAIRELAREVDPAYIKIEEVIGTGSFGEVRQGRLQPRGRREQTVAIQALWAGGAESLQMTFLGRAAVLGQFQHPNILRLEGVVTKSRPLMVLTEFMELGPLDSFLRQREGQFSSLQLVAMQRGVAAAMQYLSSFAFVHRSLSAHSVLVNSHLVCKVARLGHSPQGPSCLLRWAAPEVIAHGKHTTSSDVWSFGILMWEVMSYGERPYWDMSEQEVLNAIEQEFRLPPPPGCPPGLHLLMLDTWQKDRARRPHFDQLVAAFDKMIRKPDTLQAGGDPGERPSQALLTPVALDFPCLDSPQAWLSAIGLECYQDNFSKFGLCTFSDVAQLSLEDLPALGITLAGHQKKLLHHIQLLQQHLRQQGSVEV
T25 sequence (P35968 20-1356): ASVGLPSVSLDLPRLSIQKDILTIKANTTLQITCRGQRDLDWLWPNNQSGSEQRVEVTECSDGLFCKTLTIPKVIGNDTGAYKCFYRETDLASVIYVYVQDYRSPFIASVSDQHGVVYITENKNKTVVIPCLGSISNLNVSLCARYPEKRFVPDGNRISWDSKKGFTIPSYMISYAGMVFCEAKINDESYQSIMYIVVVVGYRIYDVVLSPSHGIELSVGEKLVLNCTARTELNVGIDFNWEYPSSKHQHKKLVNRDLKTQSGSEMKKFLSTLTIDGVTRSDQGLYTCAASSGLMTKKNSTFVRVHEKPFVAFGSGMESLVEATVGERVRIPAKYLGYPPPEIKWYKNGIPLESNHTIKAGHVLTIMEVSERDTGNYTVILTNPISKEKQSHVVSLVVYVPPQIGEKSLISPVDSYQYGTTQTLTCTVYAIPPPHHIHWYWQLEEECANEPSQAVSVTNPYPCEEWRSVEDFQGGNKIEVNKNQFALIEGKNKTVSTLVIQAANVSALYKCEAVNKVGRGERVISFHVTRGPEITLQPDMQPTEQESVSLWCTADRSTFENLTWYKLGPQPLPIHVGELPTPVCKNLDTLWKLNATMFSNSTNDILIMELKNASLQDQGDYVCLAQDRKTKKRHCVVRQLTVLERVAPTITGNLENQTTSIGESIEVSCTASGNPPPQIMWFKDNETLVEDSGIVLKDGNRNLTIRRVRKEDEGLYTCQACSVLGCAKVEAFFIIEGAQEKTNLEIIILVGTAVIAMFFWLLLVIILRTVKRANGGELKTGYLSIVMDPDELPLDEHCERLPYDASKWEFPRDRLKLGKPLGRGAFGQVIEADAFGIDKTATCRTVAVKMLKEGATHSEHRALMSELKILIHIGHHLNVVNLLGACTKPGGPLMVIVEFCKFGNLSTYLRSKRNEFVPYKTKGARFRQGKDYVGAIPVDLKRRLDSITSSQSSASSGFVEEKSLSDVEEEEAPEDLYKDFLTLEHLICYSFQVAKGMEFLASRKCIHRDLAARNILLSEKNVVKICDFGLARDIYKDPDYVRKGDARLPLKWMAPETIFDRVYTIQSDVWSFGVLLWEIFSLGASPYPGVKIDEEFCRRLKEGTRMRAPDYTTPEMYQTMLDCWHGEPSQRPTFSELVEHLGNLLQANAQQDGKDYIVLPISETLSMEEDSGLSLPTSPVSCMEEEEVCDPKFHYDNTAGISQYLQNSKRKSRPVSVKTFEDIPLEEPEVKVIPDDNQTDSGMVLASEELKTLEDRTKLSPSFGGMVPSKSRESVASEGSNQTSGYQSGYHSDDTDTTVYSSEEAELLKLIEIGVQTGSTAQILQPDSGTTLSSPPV
T31 sequence (P07332 whole entry): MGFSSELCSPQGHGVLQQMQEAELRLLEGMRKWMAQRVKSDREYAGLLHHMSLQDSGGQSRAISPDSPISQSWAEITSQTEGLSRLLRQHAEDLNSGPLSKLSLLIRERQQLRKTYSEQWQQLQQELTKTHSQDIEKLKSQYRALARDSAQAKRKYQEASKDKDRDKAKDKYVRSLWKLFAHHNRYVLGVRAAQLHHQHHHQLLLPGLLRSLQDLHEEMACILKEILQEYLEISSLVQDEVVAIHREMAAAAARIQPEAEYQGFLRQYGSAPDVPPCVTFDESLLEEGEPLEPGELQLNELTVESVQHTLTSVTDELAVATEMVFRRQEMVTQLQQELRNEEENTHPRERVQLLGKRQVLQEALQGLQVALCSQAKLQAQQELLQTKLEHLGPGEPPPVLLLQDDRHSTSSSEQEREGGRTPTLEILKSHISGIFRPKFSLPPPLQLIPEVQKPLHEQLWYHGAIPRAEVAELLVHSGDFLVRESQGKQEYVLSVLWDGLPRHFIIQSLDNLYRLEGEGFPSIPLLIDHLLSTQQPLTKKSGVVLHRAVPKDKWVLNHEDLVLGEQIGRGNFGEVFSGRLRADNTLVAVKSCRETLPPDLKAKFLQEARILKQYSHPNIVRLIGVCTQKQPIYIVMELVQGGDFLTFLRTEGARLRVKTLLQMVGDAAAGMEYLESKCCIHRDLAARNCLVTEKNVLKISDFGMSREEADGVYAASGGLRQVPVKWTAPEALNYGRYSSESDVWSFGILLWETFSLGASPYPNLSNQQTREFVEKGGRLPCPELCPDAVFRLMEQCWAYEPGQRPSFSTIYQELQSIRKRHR
T29 sequence (Q9UF33 23-1036): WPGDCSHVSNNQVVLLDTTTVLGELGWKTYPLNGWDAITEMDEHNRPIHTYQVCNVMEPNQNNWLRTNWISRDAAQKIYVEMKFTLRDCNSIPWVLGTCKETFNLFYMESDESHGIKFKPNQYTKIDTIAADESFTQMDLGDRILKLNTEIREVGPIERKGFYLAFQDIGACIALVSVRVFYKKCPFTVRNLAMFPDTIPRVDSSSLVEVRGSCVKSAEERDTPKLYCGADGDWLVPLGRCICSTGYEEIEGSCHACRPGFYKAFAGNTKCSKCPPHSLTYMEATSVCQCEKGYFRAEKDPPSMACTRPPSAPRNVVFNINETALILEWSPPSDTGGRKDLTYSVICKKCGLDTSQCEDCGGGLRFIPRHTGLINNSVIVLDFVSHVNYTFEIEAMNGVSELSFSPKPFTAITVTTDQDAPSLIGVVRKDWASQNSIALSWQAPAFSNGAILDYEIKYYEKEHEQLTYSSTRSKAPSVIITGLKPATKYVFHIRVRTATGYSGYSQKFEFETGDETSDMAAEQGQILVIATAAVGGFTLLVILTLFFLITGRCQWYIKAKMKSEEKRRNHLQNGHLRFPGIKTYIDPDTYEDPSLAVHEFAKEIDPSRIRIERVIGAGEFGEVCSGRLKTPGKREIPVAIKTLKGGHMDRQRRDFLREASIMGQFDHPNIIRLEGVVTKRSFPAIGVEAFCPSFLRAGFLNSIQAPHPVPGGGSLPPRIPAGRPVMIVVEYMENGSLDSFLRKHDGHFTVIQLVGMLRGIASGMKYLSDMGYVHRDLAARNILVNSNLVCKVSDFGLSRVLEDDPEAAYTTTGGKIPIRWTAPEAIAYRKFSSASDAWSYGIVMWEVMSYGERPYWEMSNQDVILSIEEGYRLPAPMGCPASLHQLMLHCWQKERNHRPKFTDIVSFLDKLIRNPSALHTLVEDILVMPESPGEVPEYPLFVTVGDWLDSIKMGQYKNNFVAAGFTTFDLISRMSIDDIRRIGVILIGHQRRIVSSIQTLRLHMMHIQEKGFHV
T11 sequence (Q8WU08 whole entry): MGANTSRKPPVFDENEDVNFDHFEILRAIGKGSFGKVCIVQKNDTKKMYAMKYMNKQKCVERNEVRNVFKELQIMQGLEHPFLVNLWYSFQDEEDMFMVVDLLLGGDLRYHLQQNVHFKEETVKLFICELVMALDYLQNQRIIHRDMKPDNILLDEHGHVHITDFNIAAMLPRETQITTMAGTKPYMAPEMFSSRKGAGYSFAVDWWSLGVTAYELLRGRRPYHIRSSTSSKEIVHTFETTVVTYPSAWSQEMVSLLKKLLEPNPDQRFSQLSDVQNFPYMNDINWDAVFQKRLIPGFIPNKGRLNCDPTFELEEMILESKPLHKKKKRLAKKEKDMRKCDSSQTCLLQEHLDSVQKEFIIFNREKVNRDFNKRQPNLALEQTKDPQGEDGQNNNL

O=C(O)c1ccc(-c2coc3ncc(-c4ccccc4)cc23)cc1Cl [SGC-CAMKK2-1N (UNC-YL-83)]
remaining binding at 1 µM [1]: 90%
remaining binding at 1 µM [2]: 100%
remaining binding at 1 µM [3]: 93%
remaining binding at 1 µM [4]: 100%
remaining binding at 1 µM [5]: 100%
remaining binding at 1 µM [6]: 64%
remaining binding at 1 µM [7]: 100%
remaining binding at 1 µM [8]: 98%
remaining binding at 1 µM [9]: 100%
remaining binding at 1 µM [10]: 93%
remaining binding at 1 µM [11]: 84%
remaining binding at 1 µM [12]: 100%
remaining binding at 1 µM [13]: 93%
remaining binding at 1 µM [14]: 100%

Cc1cccc(-c2cnc3occ(-c4ccc(C(=O)O)c(C5CCCC5)c4)c3c2)c1 [SGC-CAMKK2-1 (YL-36)]
remaining binding at 1 µM [15]: 91%
remaining binding at 1 µM [16]: 97%
remaining binding at 1 µM [17]: 100%
remaining binding at 1 µM [18]: 91%
remaining binding at 1 µM [19]: 98%
remaining binding at 1 µM [20]: 100%
remaining binding at 1 µM [21]: 77%
remaining binding at 1 µM [22]: 89%
remaining binding at 1 µM [23]: 100%
remaining binding at 1 µM [24]: 43%
remaining binding at 1 µM [25]: 100%
remaining binding at 1 µM [26]: 100%
remaining binding at 1 µM [27]: 100%
remaining binding at 1 µM [28]: 82%
remaining binding at 1 µM [29]: 100%
remaining binding at 1 µM [30]: 100%
remaining binding at 1 µM [31]: 100%
remaining binding at 1 µM [32]: 88%
